Test results: ChEMBL document CHEMBL1121876, “gamma-Aminobutyric acid agonists, antagonists, and uptake inhibitors. Design and therapeutic aspects” (J Med Chem, 1981)

test system: not listed separately; assay: Inhibition of neuronal GABA uptake; assay type: functional

Compound | IC50 [µM]
C[C@@H](N)CCC(=O)O | 200
C[C@H](N)c1cc(O)no1 | > 1000
C[C@H](N)CCC(=O)O | 750
C[C@@H](N)c1cc(O)no1 | > 1000

Second part, the molecule after the results:

IC50 [µM] | Compound
160 | C[C@@H](N)/C=C/C(=O)O
> 5000 | C[C@H](N)/C=C/C(=O)O

biological target: GABA-A receptor; anion channel; assay: Activation of binding of [3H]diazepam to Gamma-aminobutyric acid receptor; assay type: protein-complex assay

Compound | EC50 [µM]
C[C@@H](N)CCC(=O)O | 410
C[C@H](N)c1cc(O)no1 | 230
C[C@H](N)CCC(=O)O | 550
C[C@@H](N)c1cc(O)no1 | 2300

Second part, the molecule after the results:

EC50 [µM] | Compound
> 2000 | C[C@@H](N)/C=C/C(=O)O
390 | C[C@H](N)/C=C/C(=O)O

biological target: GABA-A receptor; anion channel; assay: In vitro inhibition of [3H]muscimol binding to Gamma-aminobutyric acid receptor of human astrocytes

Compound | IC50 [µM]
C[C@@H](N)CCC(=O)O | 4.3
C[C@H](N)c1cc(O)no1 | 0.51
C[C@H](N)CCC(=O)O | 2.5
C[C@@H](N)c1cc(O)no1 | 8.9

The remaining lines, values ahead:

IC50 [µM] | Compound
145 | C[C@@H](N)/C=C/C(=O)O
3.5 | C[C@H](N)/C=C/C(=O)O

biological target: GABA-A receptor; anion channel; assay: In vitro inhibition of [3H]GABA binding to Gamma-aminobutyric acid receptor of human astrocytes

Compound | IC50 [µM]
C[C@@H](N)CCC(=O)O | 5
C[C@H](N)c1cc(O)no1 | 0.64
C[C@H](N)CCC(=O)O | 4.7
C[C@@H](N)c1cc(O)no1 | 19

Second part, the molecule after the results:

IC50 [µM] | Compound
148 | C[C@@H](N)/C=C/C(=O)O
4.1 | C[C@H](N)/C=C/C(=O)O

biological target: GABA-A receptor; anion channel; assay: In vitro inhibition of [3H]isoguvacine binding to Gamma-aminobutyric acid receptor of human astrocytes

Compound | IC50 [µM]
C[C@@H](N)CCC(=O)O | 6.1
C[C@H](N)c1cc(O)no1 | 1.6
C[C@H](N)CCC(=O)O | 5.2
C[C@@H](N)c1cc(O)no1 | 8.2

Continued, values first:

IC50 [µM] | Compound
84 | C[C@@H](N)/C=C/C(=O)O
2.5 | C[C@H](N)/C=C/C(=O)O

test system: not listed separately; assay: Inhibition of glial GABA uptake; assay type: functional

Compound | IC50 [µM]
C[C@@H](N)CCC(=O)O | 120
C[C@H](N)c1cc(O)no1 | > 1000
C[C@H](N)CCC(=O)O | 1000
C[C@@H](N)c1cc(O)no1 | > 1000

The next lines start with the values.

IC50 [µM] | Compound
500 | C[C@@H](N)/C=C/C(=O)O
> 5000 | C[C@H](N)/C=C/C(=O)O

biological target: GABA-A receptor; anion channel; assay: In vitro inhibition of [3H]P4S binding to Gamma-aminobutyric acid receptor of human astrocytes

Compound | IC50 [µM]
C[C@@H](N)CCC(=O)O | 21
C[C@H](N)c1cc(O)no1 | 5.8
C[C@H](N)CCC(=O)O | 24
C[C@@H](N)c1cc(O)no1 | 83

The remaining lines, values ahead:

IC50 [µM] | Compound
670 | C[C@@H](N)/C=C/C(=O)O
21 | C[C@H](N)/C=C/C(=O)O

biological target: GABA-A receptor; anion channel; assay: In vitro inhibition of [3H]-THIP binding to Gamma-aminobutyric acid receptor of human astrocytes

Compound | IC50 [µM]
C[C@@H](N)CCC(=O)O | 2.5
C[C@H](N)c1cc(O)no1 | 0.74
C[C@H](N)CCC(=O)O | 2.9
C[C@@H](N)c1cc(O)no1 | 9.5

Second part, the molecule after the results:

IC50 [µM] | Compound
88 | C[C@@H](N)/C=C/C(=O)O
2.6 | C[C@H](N)/C=C/C(=O)O
